In patent US12083140B2, “Pharmaceutical composition for preventing and treating glaucoma, containing adenosine derivative” (FUTURE MEDICINE CO., LTD., priority 2017, dated 2024):
One block for each compound: values may come before it.

Columns and labels:
[1] = system: TPA-induced mouse ear edema; assay: Anti-inflammatory activity, TPA-induced mouse ear edema; format: in vivo, ICR mice; conditions: for TPA-induced mouse ear edema: 0.5% in acetone
Method: In order to investigate the anti-inflammatory activity of the derivatives of the present invention, the animal experiments were performed as below. Seven-week-old male ICR mice were treated with TPA (12-O-tetradecanoylphorbol 13-acetate, […]) in the right ear. […] The same experiment was performed by treating hydrocortisone used as a treatment agent for inflammation as a control at the same concentration.
Subsequently, secondly, the adenosine derivative compound of the present invention was treated after 6 hours from TPA treatment. Twenty-four hours after TPA treatment, the animals were euthanized using the cervical dislocation method. Then, a right ear sample was obtained using a 6 mm diameter punch. The activity could be confirmed by weighing using a microbalance. The inhibition rate (%) was calculated using the following Equation 1.

[2] = molecular target: T1, human adenosine A1 receptor (hA1) (Homo sapiens, UniProt P30542); assay: Binding affinity for human adenosine A1 receptor (CHO cells, [3H]CCPA); conditions: test concentration not given
T1 construct: expressed in transfected cells; host or cells: CHO (ATCC CCL-61)
T1 sequence (P30542 1-326): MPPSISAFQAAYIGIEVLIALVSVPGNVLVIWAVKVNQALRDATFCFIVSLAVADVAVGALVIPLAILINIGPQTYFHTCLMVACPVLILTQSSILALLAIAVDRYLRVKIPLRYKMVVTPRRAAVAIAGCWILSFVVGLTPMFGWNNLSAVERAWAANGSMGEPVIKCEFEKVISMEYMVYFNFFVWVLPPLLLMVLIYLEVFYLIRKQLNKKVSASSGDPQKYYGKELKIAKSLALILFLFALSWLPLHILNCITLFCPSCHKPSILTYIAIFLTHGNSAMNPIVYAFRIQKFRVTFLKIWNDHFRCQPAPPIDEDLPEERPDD

[3] = molecular target: T2, human adenosine A2A receptor (hA2A) (Homo sapiens, UniProt P29274); assay: Binding affinity for human adenosine A2A receptor (HEK 293 cells, [3H]CGS-21680); conditions: test concentration not given
T2 construct: expressed in transfected cells; host or cells: HEK 293
T2 sequence (P29274 whole entry): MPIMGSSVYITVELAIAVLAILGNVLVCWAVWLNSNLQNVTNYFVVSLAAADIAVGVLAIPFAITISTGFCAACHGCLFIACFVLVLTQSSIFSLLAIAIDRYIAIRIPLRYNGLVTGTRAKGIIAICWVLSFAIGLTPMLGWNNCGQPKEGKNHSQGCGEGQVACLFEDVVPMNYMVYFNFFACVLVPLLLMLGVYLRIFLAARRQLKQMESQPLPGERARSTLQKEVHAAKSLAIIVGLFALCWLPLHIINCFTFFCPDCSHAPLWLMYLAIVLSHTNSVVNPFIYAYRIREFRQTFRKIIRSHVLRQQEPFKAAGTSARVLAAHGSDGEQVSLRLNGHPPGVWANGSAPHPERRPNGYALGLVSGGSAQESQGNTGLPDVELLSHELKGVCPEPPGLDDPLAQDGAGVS

[4] = molecular target: T3, human adenosine A3 receptor (hA3) (Homo sapiens, UniProt P0DMS8); assay: Binding affinity for human adenosine A3 receptor (CHO cells, [125I]AB-MECA); conditions: read-out: K(nM) hA3
T3 construct: expressed in transfected cells; host or cells: CHO (ATCC CCL-61)
T3 sequence (P0DMS8 1-318): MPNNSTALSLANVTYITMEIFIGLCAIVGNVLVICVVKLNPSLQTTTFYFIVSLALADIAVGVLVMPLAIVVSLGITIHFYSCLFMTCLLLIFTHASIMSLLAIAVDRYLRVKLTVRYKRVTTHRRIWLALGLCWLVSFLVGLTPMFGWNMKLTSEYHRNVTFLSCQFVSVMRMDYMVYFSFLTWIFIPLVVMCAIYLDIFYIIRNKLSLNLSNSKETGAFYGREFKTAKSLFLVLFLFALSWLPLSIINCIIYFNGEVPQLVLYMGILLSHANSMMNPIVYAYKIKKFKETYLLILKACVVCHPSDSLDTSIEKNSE

[5] = molecular target: T4, adenosine A3 receptor in rats expressed in Chinese hamster ovary (CHO) cells (Rattus norvegicus, UniProt P28647); assay: Binding affinity for rat adenosine A3 receptor expressed in CHO cells
T4 construct: expressed in transfected cells; host or cells: CHO
T4 sequence (P28647 1-320): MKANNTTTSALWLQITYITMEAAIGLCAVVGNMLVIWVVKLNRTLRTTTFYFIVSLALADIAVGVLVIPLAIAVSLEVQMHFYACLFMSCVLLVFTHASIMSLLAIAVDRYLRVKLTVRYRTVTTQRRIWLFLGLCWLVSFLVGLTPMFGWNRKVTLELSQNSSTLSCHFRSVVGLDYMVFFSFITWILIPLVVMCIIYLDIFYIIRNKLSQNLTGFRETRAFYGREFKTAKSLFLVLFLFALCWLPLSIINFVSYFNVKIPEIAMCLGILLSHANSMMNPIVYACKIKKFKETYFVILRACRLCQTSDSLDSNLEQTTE

[6] = molecular target: T5, human adenosine A2B receptor (Homo sapiens, UniProt P29275); assay: Agonist or antagonist activity at human adenosine A2B receptor; format: biochemical
T5 sequence (P29275 1-332): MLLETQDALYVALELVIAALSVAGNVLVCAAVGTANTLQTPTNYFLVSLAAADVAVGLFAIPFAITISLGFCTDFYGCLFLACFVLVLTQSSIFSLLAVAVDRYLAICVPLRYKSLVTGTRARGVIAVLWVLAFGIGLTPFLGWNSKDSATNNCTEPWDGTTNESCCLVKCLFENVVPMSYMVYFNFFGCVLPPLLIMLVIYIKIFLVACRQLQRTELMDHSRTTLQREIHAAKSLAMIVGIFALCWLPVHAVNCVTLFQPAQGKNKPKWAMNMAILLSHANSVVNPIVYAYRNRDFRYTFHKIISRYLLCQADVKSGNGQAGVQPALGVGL

[7] = molecular target: T6, human adenosine A3 receptor (Homo sapiens, UniProt P0DMS8); assay: Antagonistic effect and cAMP inhibition test on adenosine A3 receptor (CHO cells, Cl-IB-MECA, Schild analysis); format: cell-based; conditions: different concentrations
T6 construct: expressed in transfected cells; host or cells: CHO (ATCC CCL-61)
T6 sequence (P0DMS8 1-318): T3 sequence (P0DMS8 1-318)

[8] = system: extracellular matrix proteins (Fibronectin, SMA and MYOC); assay: Anti-fibrotic effect on trabecular meshwork tissue (immunostaining); format: in vivo, C57BL/6J mice; conditions: Example 2 oral 20 mg/kg once a day and 10 mg/kg twice a day; acetazolamide 4.17 mg/kg once a day
Method: In Experimental Example 10, the ocular tissues of each laboratory animal after measurement of intraocular pressure were extracted and sectioned and immunostaining using antibody was performed to confirm the expression of extracellular matrix proteins (Fibronectin, SMA and MYOC) and the results are shown in FIG. 13. In FIG. 13, Normal represents the trabecular meshwork of the animal which dexamethasone was not treated with in Experimental Example 10, Control represents the trabecular meshwork tissue of the animal to which only the excipient was administered in Experimental Example 10, Acetazolamide represents the trabecular meshwork tissue of the animal to which acetazolamide was administered in Experimental Example 10. Fluorescently stained tissue was observed under fluorescence microscope under the same conditions (magnification 200×, exposure time 1 sec).

MMP (MMP2, MMP9) = assay: MMP enzyme protein and mRNA expression in trabecular meshwork tissue; format: in vivo, C57BL/6J mice; conditions: Example 2 oral 20 mg/kg once a day and 10 mg/kg twice a day; acetazolamide 4.17 mg/kg once a day
Method: (§1) In Experimental Example 10, the expression amounts of these proteins and mRNAs in MMP and TIMP enzymes were measured for the eye tissues of the respective laboratory animals which the measurement of the intraocular pressure was completed, and the results are shown in FIG. 14 to FIG. 17. FIG. 14 and FIG. 15 show protein expression amounts of MMP (MMP2, MMP9) and TIMP (TIMP 1, TIMP2) enzymes, respectively. FIG. 16 and FIG. 17 show mRNA expression levels. In FIG. 14 to FIG. 17, Normal represents the expression level of the animal to which the dexamethasone was not treated in Experimental Example 10, Control represents the expression level of the animal to which only the excipient was administered in Experimental Example 10, and Acetazolamide represents the expression level of the animal to which acetazolamide was administered in Experimental Example 10.

TIMP (TIMP 1, TIMP2) = assay: TIMP enzyme protein and mRNA expression in trabecular meshwork tissue; format: in vivo, C57BL/6J mice; conditions: Example 2 oral 20 mg/kg once a day and 10 mg/kg twice a day; acetazolamide 4.17 mg/kg once a day
Method: as §1

[9] = 0.5% in mixed solvent of distilled water and acetone (1:4)
[10] = 0.5% in mixed solvent of DMSO and acetone (1:9)

Compound: (2R,3R,4S)-2-(2-chloro-6-(naphthalen-1-ylmethylbenzylamino)-9H-purin-9-yl)tetrahydrothiophene-3,4-diol [Example 8]
% hA1 [2]: 22.0%
% hA2A [3]: −8.3%
Ki [4]: 24.8 ± 8.1 nM

Compound: O[C@@H]1[C@H](O)CO[C@H]1n1cnc2c(NCc3cccc(Br)c3)nc(Cl)nc21 [Example 15, (2R,3R,4R)-2-(6-(3-bromobenzylamino)-2-chloro-9H-purin-9-yl)tetrahydrofuran-3,4-diol]
inflammation inhibition rate [1, 10]: 59%
melting point: 181.5 to 181.7 °C

Compound: O[C@@H]1[C@H](O)CS[C@H]1n1cnc2c(NCc3cccc(Br)c3)nc(Cl)nc21 [Example 3, (2R,3R,4S)-2-(2-chloro-6-(3-bromobenzylamino)-9H-purin-9-yl)tetrahydrothiophene-3,4-diol]
TPA-induced mouse ear edema [1]: reduced by a small amount
melting point: 184 to 185 °C

Compound: O[C@@H]1[C@H](O)CS[C@H]1n1cnc2c(NCc3cccc(Br)c3)ncnc21 [Example 13, (2R,3R,4S)-2-(6-(3-bromobenzylamino)-9H-purin-9-yl)tetrahydrothiophene-3,4-diol]
melting point: 183 to 184 °C

Compound: O=C(O)c1cccc(CNc2nc(Cl)nc3c2ncn3[C@@H]2SC[C@H](O)[C@@H]2O)c1 [Example 9, 3-((2-chloro-9-((2R,3S,4R)-3,4-dihydroxytetrahydrothiophen-2-yl)-9H-purin-6-ylamino)methyl)benzoic acid]
melting point: 254 to 256.9 °C

Compound: CC(=O)Nc1nnc(S(N)(=O)=O)s1 [acetazolamide, reference compound]
expression of fibronectin, SMA and MYOC protein in trabecular meshwork tissue [8]: increased expression
protein and mRNA expression levels of MMP enzyme compared with the normal group (MMP (MMP2, MMP9)): significantly decreased
protein and mRNA expression levels of TIMP enzyme compared with the normal group (TIMP (TIMP 1, TIMP2)): significantly increased

Compound: O[C@@H]1[C@H](O)CO[C@H]1n1cnc2c(NCc3cccc(I)c3)nc(Cl)nc21 [Example 16, (2R,3R,4R)-2-(6-(3-iodobenzylamino)-2-chloro-9H-purin-9-yl)tetrahydrofuro-3,4-diol]
inflammation inhibition rate [1, 10]: 79%
melting point: 195.5 to 195.8 °C

The next lines start with results.

melting point: 188 °C
Compound: COc1ccccc1CNc1nc(Cl)nc2c1ncn2[C@@H]1SC[C@@H](O)[C@H]1O [Example 7, (2R,3R,4S)-2-(2-chloro-6-(2-methoxybenzylamino)-9H-purin-9-yl)tetrahydrothiophene-3,4-diol]
inflammation inhibition rate [1, 9]: 53%

Ki [5]: 3.89 ± 1.15 nM
effect of the agonist Cl-IB-MECA in CHO cells treated with the compound [7]: inhibited depending on the concentration
Compound: O[C@@H]1[C@H](O)CS[C@H]1n1cnc2c(NCc3cccc(I)c3)nc(Cl)nc21 [Example 4, (2R,3R,4S)-2-(2-chloro-6-(3-iodobenzylamino)-9H-purin-9-yl)tetrahydrothiophene-3,4-diol]
activity as an agonist or an antagonist at human adenosine A2B receptor [6]: did not show activity as an agonist or an antagonist
TPA-induced mouse ear edema [1]: reduced by a small amount
TPA-induced mouse ear edema ([1]; listed as compound 4): had an effect of reducing edema

melting point: 183.2 to 183.5 °C
Compound: O[C@@H]1[C@H](O)CS[C@H]1n1cnc2c(NCc3cccc(F)c3)nc(Cl)nc21 [Example 1, (2R,3R,4S)-2-(2-chloro-6-(3-fluorobenzylamino)-9H-purin-9-yl)tetrahydrothiophene-3,4-diol]

melting point: 188.8 to 189.8 °C
Compound: COc1ccc(Cl)cc1CNc1nc(Cl)nc2c1ncn2[C@@H]1SC[C@@H](O)[C@H]1O [Example 6, (2R,3R,4S)-2-(2-chloro-6-(5-chloro-2-methoxybenzylamino)-9H-purin-9-yl)tetrahydrothiophene-3,4-diol]
inflammation inhibition rate [1, 9]: 34%

melting point: 198.7 to 199.7 °C
Compound: O[C@@H]1[C@H](O)CS[C@H]1n1cnc2c(NCc3ccccc3Cl)nc(Cl)nc21 [Example 5, (2R,3R,4S)-2-(2-chloro-6-(2-chlorobenzylamino)-9H-purin-9-yl) tetrahydrothiophene-3,4-diol]
inflammation inhibition rate [1, 9]: 17%

melting point: 198.8 to 199.8 °C
Compound: O[C@@H]1[C@H](O)CS[C@H]1n1cnc2c(NCc3cccc(I)c3)ncnc21 [Example 14, (2R,3R,4S)-2-(6-(3-iodobenzylamino)-9H-purin-9-yl) tetrahydrothiophene-3,4-diol]
